From patent US8192962B2, “Processes for detecting toxic substances” (Daikin Industries, Ltd., priority 2001, dated 2012)

Tested on: Metabolism protein genes
Assay: DNA chip mRNA expression in yeast, metabolism protein genes (Table 7)
Type: cell-based, Saccharomyces cerevisiae S288C
Summary of the method: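 Chemical exposure: 2 h, log-phase S. cerevisiae S288C, YPD, 25° C., dose set to inhibit growth without death. Profiling: mRNA labeled by reverse transcription with Cy3- or Cy5-dUTP, hybridized to whole-genome array. Output: fluorescence ratio against untreated culture.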

COc1cc(CNC(=O)CCCCC=CC(C)C)ccc1O [(12), 8-methyl-N-vanillyl-6-nonenamide]
0.4: The level of expressed mRNA in the presence of chemical substance/The level of expressed mRNA in the absence of chemical substance (yeast gene YDR380W) | level of expressed mRNA in the presence/in the absence of chemical substance (yeast gene YDR400W)
0.9: The level of expressed mRNA in the presence of chemical substance/The level of expressed mRNA in the absence of chemical substance (yeast gene YBR222C) | The level of expressed mRNA in the presence of chemical substance/The level of expressed mRNA in the absence of chemical substance (yeast gene YCR048W) | level of expressed mRNA in the presence/in the absence of chemical substance (yeast gene YDR277C) | level of expressed mRNA in the presence/in the absence of chemical substance (yeast gene YDR284C) | The level of expressed mRNA in the presence of chemical substance/The level of expressed mRNA in the absence of chemical substance (yeast gene YDR497C) | level of expressed mRNA in the presence/in the absence of chemical substance (yeast gene YER015W) | The level of expressed mRNA in the presence of chemical substance/The level of expressed mRNA in the absence of chemical substance (yeast gene YER096W) | level of expressed mRNA in the presence/in the absence of chemical substance (yeast gene YFL011W) | level of expressed mRNA in the presence/in the absence of chemical substance (yeast gene YGL115W) | The level of expressed mRNA in the presence of chemical substance/The level of expressed mRNA in the absence of chemical substance (yeast gene YGR055W) | level of expressed mRNA in the presence/in the absence of chemical substance (yeast gene YGR288W) | level of expressed mRNA in the presence/in the absence of chemical substance (yeast gene YHR025W) | The level of expressed mRNA in the presence of chemical substance/The level of expressed mRNA in the absence of chemical substance (yeast gene YHR111W) | level of expressed mRNA in the presence/in the absence of chemical substance (yeast gene YIL006W)
1.7: The level of expressed mRNA in the presence of chemical substance/The level of expressed mRNA in the absence of chemical substance (yeast gene YBR256C) | The level of expressed mRNA in the presence of chemical substance/The level of expressed mRNA in the absence of chemical substance (yeast gene YCL009C) | The level of expressed mRNA in the presence of chemical substance/The level of expressed mRNA in the absence of chemical substance (yeast gene YER026C) | The level of expressed mRNA in the presence of chemical substance/The level of expressed mRNA in the absence of chemical substance (yeast gene YER053C) | The level of expressed mRNA in the presence of chemical substance/The level of expressed mRNA in the absence of chemical substance (yeast gene YFR047C) | The level of expressed mRNA in the presence of chemical substance/The level of expressed mRNA in the absence of chemical substance (yeast gene YJL068C)
1.1: The level of expressed mRNA in the presence of chemical substance/The level of expressed mRNA in the absence of chemical substance (yeast gene YAL012W) | level of expressed mRNA in the presence/in the absence of chemical substance (yeast gene YBR011C) | The level of expressed mRNA in the presence of chemical substance/The level of expressed mRNA in the absence of chemical substance (yeast gene YDR516C) | level of expressed mRNA in the presence/in the absence of chemical substance (yeast gene YEL063C) | level of expressed mRNA in the presence/in the absence of chemical substance (yeast gene YGL205W) | The level of expressed mRNA in the presence of chemical substance/The level of expressed mRNA in the absence of chemical substance (yeast gene YIL107C) | The level of expressed mRNA in the presence of chemical substance/The level of expressed mRNA in the absence of chemical substance (yeast gene YIL154C) | The level of expressed mRNA in the presence of chemical substance/The level of expressed mRNA in the absence of chemical substance (yeast gene YJL172W) | The level of expressed mRNA in the presence of chemical substance/The level of expressed mRNA in the absence of chemical substance (yeast gene YJL219W)
1.5: The level of expressed mRNA in the presence of chemical substance/The level of expressed mRNA in the absence of chemical substance (yeast gene YGR037C) | The level of expressed mRNA in the presence of chemical substance/The level of expressed mRNA in the absence of chemical substance (yeast gene YGR256W) | The level of expressed mRNA in the presence of chemical substance/The level of expressed mRNA in the absence of chemical substance (yeast gene YHR174W) | The level of expressed mRNA in the presence of chemical substance/The level of expressed mRNA in the absence of chemical substance (yeast gene YIL045W)
1.0: level of expressed mRNA in the presence/in the absence of chemical substance (yeast gene YER081W) | The level of expressed mRNA in the presence of chemical substance/The level of expressed mRNA in the absence of chemical substance (yeast gene YFL031W) | The level of expressed mRNA in the presence of chemical substance/The level of expressed mRNA in the absence of chemical substance (yeast gene YFL056C) | The level of expressed mRNA in the presence of chemical substance/The level of expressed mRNA in the absence of chemical substance (yeast gene YFL057C) | level of expressed mRNA in the presence/in the absence of chemical substance (yeast gene YGR204W) | The level of expressed mRNA in the presence of chemical substance/The level of expressed mRNA in the absence of chemical substance (yeast gene YJL099W) | level of expressed mRNA in the presence/in the absence of chemical substance (yeast gene YJL216C) | level of expressed mRNA in the presence/in the absence of chemical substance (yeast gene YJR077C)
4.3: The level of expressed mRNA in the presence of chemical substance/The level of expressed mRNA in the absence of chemical substance (yeast gene YFL014W)
1.3: The level of expressed mRNA in the presence of chemical substance/The level of expressed mRNA in the absence of chemical substance (yeast gene YBR029C) | The level of expressed mRNA in the presence of chemical substance/The level of expressed mRNA in the absence of chemical substance (yeast gene YCR098C) | level of expressed mRNA in the presence/in the absence of chemical substance (yeast gene YDR178W) | The level of expressed mRNA in the presence of chemical substance/The level of expressed mRNA in the absence of chemical substance (yeast gene YDR502C) | level of expressed mRNA in the presence/in the absence of chemical substance (yeast gene YER120W) | The level of expressed mRNA in the presence of chemical substance/The level of expressed mRNA in the absence of chemical substance (yeast gene YER178W) | The level of expressed mRNA in the presence of chemical substance/The level of expressed mRNA in the absence of chemical substance (yeast gene YGL209W) | The level of expressed mRNA in the presence of chemical substance/The level of expressed mRNA in the absence of chemical substance (yeast gene YGR282C) | The level of expressed mRNA in the presence of chemical substance/The level of expressed mRNA in the absence of chemical substance (yeast gene YJL031C) | level of expressed mRNA in the presence/in the absence of chemical substance (yeast gene YJL167W)
1.4: level of expressed mRNA in the presence/in the absence of chemical substance (yeast gene YDR050C) | level of expressed mRNA in the presence/in the absence of chemical substance (yeast gene YDR345C) | The level of expressed mRNA in the presence of chemical substance/The level of expressed mRNA in the absence of chemical substance (yeast gene YIL155C) | The level of expressed mRNA in the presence of chemical substance/The level of expressed mRNA in the absence of chemical substance (yeast gene YIR034C) | The level of expressed mRNA in the presence of chemical substance/The level of expressed mRNA in the absence of chemical substance (yeast gene YJR137C)
1.9: The level of expressed mRNA in the presence of chemical substance/The level of expressed mRNA in the absence of chemical substance (yeast gene YGR244C)
0.6: level of expressed mRNA in the presence/in the absence of chemical substance (yeast gene YDR408C) | level of expressed mRNA in the presence/in the absence of chemical substance (yeast gene YGL012W) | The level of expressed mRNA in the presence of chemical substance/The level of expressed mRNA in the absence of chemical substance (yeast gene YGL126W) | The level of expressed mRNA in the presence of chemical substance/The level of expressed mRNA in the absence of chemical substance (yeast gene YHR137W) | level of expressed mRNA in the presence/in the absence of chemical substance (yeast gene YJL121C)
0.7: The level of expressed mRNA in the presence of chemical substance/The level of expressed mRNA in the absence of chemical substance (yeast gene YCL064C) | The level of expressed mRNA in the presence of chemical substance/The level of expressed mRNA in the absence of chemical substance (yeast gene YDR019C) | The level of expressed mRNA in the presence of chemical substance/The level of expressed mRNA in the absence of chemical substance (yeast gene YGL022W) | level of expressed mRNA in the presence/in the absence of chemical substance (yeast gene YGR191W) | level of expressed mRNA in the presence/in the absence of chemical substance (yeast gene YHR123W) | The level of expressed mRNA in the presence of chemical substance/The level of expressed mRNA in the absence of chemical substance (yeast gene YIL167W) | The level of expressed mRNA in the presence of chemical substance/The level of expressed mRNA in the absence of chemical substance (yeast gene YJL088W)
0.5: level of expressed mRNA in the presence/in the absence of chemical substance (yeast gene YCR034W) | level of expressed mRNA in the presence/in the absence of chemical substance (yeast gene YDR123C) | level of expressed mRNA in the presence/in the absence of chemical substance (yeast gene YHR210C)
1.6: The level of expressed mRNA in the presence of chemical substance/The level of expressed mRNA in the absence of chemical substance (yeast gene YCL018W)
2.8: The level of expressed mRNA in the presence of chemical substance/The level of expressed mRNA in the absence of chemical substance (yeast gene YDL174C)
1.2: The level of expressed mRNA in the presence of chemical substance/The level of expressed mRNA in the absence of chemical substance (yeast gene YAL038W) | The level of expressed mRNA in the presence of chemical substance/The level of expressed mRNA in the absence of chemical substance (yeast gene YBR183W) | The level of expressed mRNA in the presence of chemical substance/The level of expressed mRNA in the absence of chemical substance (yeast gene YFL030W) | The level of expressed mRNA in the presence of chemical substance/The level of expressed mRNA in the absence of chemical substance (yeast gene YHR176W) | The level of expressed mRNA in the presence of chemical substance/The level of expressed mRNA in the absence of chemical substance (yeast gene YIR036C)
0.8: level of expressed mRNA in the presence/in the absence of chemical substance (yeast gene YBR003W) | level of expressed mRNA in the presence/in the absence of chemical substance (yeast gene YBR020W) | The level of expressed mRNA in the presence of chemical substance/The level of expressed mRNA in the absence of chemical substance (yeast gene YBR023C) | level of expressed mRNA in the presence/in the absence of chemical substance (yeast gene YCR010C) | level of expressed mRNA in the presence/in the absence of chemical substance (yeast gene YDR073W) | level of expressed mRNA in the presence/in the absence of chemical substance (yeast gene YDR483W) | The level of expressed mRNA in the presence of chemical substance/The level of expressed mRNA in the absence of chemical substance (yeast gene YER069W) | The level of expressed mRNA in the presence of chemical substance/The level of expressed mRNA in the absence of chemical substance (yeast gene YGL248W) | level of expressed mRNA in the presence/in the absence of chemical substance (yeast gene YGR096W) | The level of expressed mRNA in the presence of chemical substance/The level of expressed mRNA in the absence of chemical substance (yeast gene YGR194C)
